Here are results for one compound from ChEMBL document CHEMBL1134042, “[Lys3]Didemnins as potential affinity ligands” (Bioorg Med Chem Lett, 2001).

The structures appear in SMILES notation.

Assay [1] in a line: Cell free protein biosynthesis inhibition activity was determined. The format is functional, Homo sapiens.
Assay [2] in a line: Cytotoxicity in NCI-60 human tumor cells. It is filed as functional. The settings on record: read-out: LC50 (the source's name).
The nature of assay [3]: Total growth inhibition of NCI-60 human tumor cells by the compound was evaluated. The format is functional.
Assay [4] is described as follows: Antiproliferative activity as 50% growth inhibition of NCI-60 human tumor cells. The format is functional.

Turning to `CC[C@H](C)[C@H]1NC(=O)[C@@H](NC(=O)[C@@H](CC(C)C)N(C)C(=O)[C@@H]2CCCN2C(=O)C(C)O)[C@@H](C)OC(=O)[C@H](Cc2ccc(OC)cc2)N(C)C(=O)[C@@H]2CCCN2C(=O)[C@H](CCCCN)NC(=O)[C@@H](C)C(=O)[C@H](C(C)C)OC(=O)C[C@@H]1O` (some centres undefined), the IC50 in assay [1] came out at 154 µM. Moreover, in assay [2], the CC50 amounted to 25 µM. Also, total growth inhibition in assay [3] (TGI) required 22 µM. The compound also gave a GI50 in assay [4] of 6.4 µM.

As usually defined, the IC50 is the concentration at which inhibition is half-maximal. Broadly, the TGI is the concentration giving total growth inhibition. A higher TGI goes with less potent growth arrest. In general, GI50 refers to the concentration at which growth is held to half of that of the control. Read a high GI50 as lower sensitivity of the cells.
